Like-named read-outs stand apart in the source and are kept apart here. One block for each molecule: values may come before it.
Tests used:
M. globosa CBS 7966 = assay: Agar dilution test, growth inhibition (MIC) of M. globosa CBS 7966; format: cell-based; conditions: MLN agar, 7 days at 30° C.
Protocol: (§1) The fatty acid esters and their mixtures were tested for growth inhibition against Malassezia. The following reference strains were included:
(§2) Tests were performed in 6 well plates on solid media using agar dilution tests. Stock solutions of test substances were prepared in DMSO. Lower test concentrations were obtained by diluting stock solutions in DMSO.
(§3) Briefly, microorganisms are inoculated on modified Leeming & Notman (MLN) agar. A well grown plate is harvested in a 0.8% NaCl solution. Dilutions of test substances are prepared according to the concentration range required for the test. 5 μl of the test sample and controls are complemented with 500 μl MLN agar and mixed by shaking. 200 μl of liquid MLN per well are added onto the solidified agar. Afterwards, 20 μl of inoculum solution is added, with except of the blanks, and samples are incubated for 7 days at 30° C. Typical concentrations to be tested are 5000 ppm, 2500 ppm, and 1:1 dilutions from 1000 ppm (500 ppm, 250 ppm, etc).
(§4) Appropriate controls are included to show the growth of organisms without antifungal substances and antifungal activity of reference substances.

M. sympodialis DSM 6171 = assay: Agar dilution test, growth inhibition (MIC) of M. sympodialis DSM 6171; format: cell-based; conditions: MLN agar, 7 days at 30° C.
Protocol: as §1, §2, §3, §4

M. restricta CBS 7877 = assay: Agar dilution test, growth inhibition (MIC) of M. restricta CBS 7877; format: cell-based; conditions: MLN agar, 7 days at 30° C.
Protocol: as §1, §2, §3, §4

M. sympodialis = tested on: M. sympodialis; parameters: unit not given here; conditions: cited from earlier work
M. globosa = tested on: M. globosa; parameters: unit not given here; conditions: cited from earlier work
M. restricta = tested on: M. restricta; parameters: unit not given here; conditions: M. restricta strain 7877; cited from earlier work

Minimal inhibitory concentration (MIC) (M. globosa CBS 7966): 1.000 ppm
Minimal inhibitory concentration (MIC) (M. sympodialis DSM 6171): 2.500 ppm
Molecule: polyglyceryl-3 caprylate [Polyglyceryl-3-caprylate]

Molecule: xylityl sesquicaprylate
Minimal inhibitory concentration (MIC) (M. globosa CBS 7966): 1.000 ppm
Minimal inhibitory concentration (MIC) (M. restricta CBS 7877): 2.500 ppm
Minimal inhibitory concentration (MIC) (M. sympodialis DSM 6171): 2.500 ppm

Molecule: CCCCCCCC(=O)OCC(O)CO (stereo not drawn) [Glyceryl monocaprylate, glyceryl monocaprylate]
MIC (M. sympodialis; M. sympodialis strain 6171): 2,000
MIC (M. sympodialis; M. sympodialis strain 7222): 1,000
MIC (M. sympodialis; M. sympodialis strain 7979): 1,000
MIC (M. sympodialis; M. sympodialis strain 42132): 1,000
MIC (M. globosa; M. globosa strain 7705): 1,000
MIC (M. globosa; M. globosa strain 7966): 1,000
MIC (M. restricta): 300

Molecule: CCCCCCCC(=O)OCC [Ethyl caprylate, ethyl caprylate]
MIC (M. sympodialis; M. sympodialis strain 6171): 1,000
MIC (M. sympodialis; M. sympodialis strain 7222): 1,000
MIC (M. sympodialis; M. sympodialis strain 7979): 1,000
MIC (M. sympodialis; M. sympodialis strain 42132): 1,000
MIC (M. globosa; M. globosa strain 7966): 1,000
MIC (M. globosa; M. globosa strain PM1): 1,000
MIC (M. restricta): 4,000

Molecule: CCCCCCCC(=O)OCCCO [3-Hydroxypropyl caprylate, 3-hydroxypropyl caprylate]
MIC (M. sympodialis; M. sympodialis strain 6171): 2,000
MIC (M. sympodialis; M. sympodialis strain 7222): 1,000
MIC (M. sympodialis; M. sympodialis strain 7979): 2,000
MIC (M. sympodialis; M. sympodialis strain 42132): 1,000
MIC (M. globosa; M. globosa strain 7705): 1,000
MIC (M. globosa; M. globosa strain 7966): 1,000
MIC (M. globosa; M. globosa strain PM1): 500
MIC (M. restricta): 1,000

Molecule: sorbitan caprylate
Minimal inhibitory concentration (MIC) (M. globosa CBS 7966): 1.000 ppm
Minimal inhibitory concentration (MIC) (M. restricta CBS 7877): 2.500 ppm
Minimal inhibitory concentration (MIC) (M. sympodialis DSM 6171): 5.000 ppm

— US20250000766A1, “ANTIMICROBIAL ESTERS FOR SKIN AND SCALP CARE” (SYMRISE AG, priority 2021, published 2025)
